Experimental data from US11220661B2, “Compositions comprising taurate surfactants and methods of using the compositions” (Colgate-Palmolive Company, priority 2016, dated 2022).

Assays:
[1] = system: proinflammatory cytokines IL-1a, IL-6, IL-8, TNF-a in 3D EpiDerm skin models; assay: Multiple inflammation biomarker assay on SDS-irritated 3D EpiDerm skin models; conditions: for cytokine levels (IL-1a, IL-6, IL-8, TNF-a; FIGS. 2A-2D, % control): 0.02 wt. % SDS-irritated skin samples, 30 ul of 1% test solution in PBS topically for 1 hour, then 24 hours incubation, Milliplex assay
Description: To document the effect on skin inflammation, in vitro experiments using 3D EpiDerm skin models (SIT 200 skin irritation model, MatTek Corporation, Ashland, Mass.) were conducted. An irritant chemical, sodium dodecyl sulfate (0.02 wt. % SDS), was used to induce skin irritation in in vitro skin samples. After the inducement of skin irritation, the in vitro skin samples were each treated topically with one of two 30 ul test solutions (either a 1% Taurine in PBS solution or a 1% Sodium methyl oleoyl taurate in PBS solution) for 1 hour in a tissue culture incubator (37 degree C., 5% CO2). Following the incubation, the skin samples were washed with PBS and placed in a culture medium and further incubated for 24 hours. Tissue was harvested and homogenized for a multiple inflammation biomarker assay, testing levels of IL-1, IL-6, IL-8 and TNF-a. Biomarkers were analyzed by a Milliplex assay kit. (Millipore, Billerica, Mass.).
The irritant chemical, sodium dodecyl sulfate (SDS), that was used is commonly used as a […] control in irritation/inflammation assays on MatTek tissue. The multiple biomarker assay of Example 2 measured the levels of proinflammatory cytokines, including IL-1a, IL-6, IL-8, TNF-a, in one assay to evaluate the level of skin irritation/inflammation. The more cytokines released, the greater the irritation and/or inflammation potential.

[2] = system: IL-1a in 3D EpiDerm skin models; assay: Irritation biomarker (IL-1a) assay on 3D EpiDerm skin models; assay type: cell-based, human; conditions: 6.8% in combar base, p-value of 0.03 vs combar base
Excerpt: Two separate combar samples were formulated, one with taurine and one with sodium methyl oleoyl taurate. Both the taurine and sodium methyl oleoyl taurate were formulated at the same molar concentration in the combar samples. The weight concentrations of taurine and methyl oleoyl taurate in their respective combar bases was as follows:
Taurine combar sample—2% Taurine (obtained from Qianjiang Yongan Pharmaceutical, Wuhan, China), 98% Combar;
Taurate combar sample—6.8% Sodium Methyl Oleoyl Taurate (obtained from Rhodia Solvay Group), 93.2% Combar.
Samples for testing were made by mixing the taurine combar and taurate combar in PBS (1% weight by volume combar base of each of the taurine combar and sodium methyl oleoyl taurate combar in PBS).
Separate In vitro skin samples were treated topically with 30 ul each of the taurine combar and taurate combar test samples for 1 hour in a tissue culture incubator. […] Tissue was harvested and homogenized for a IL-1a assay. IL-1a levels were analyzed using a Human IL-1 alpha/IL-1F1 Quantikine ELISA kit available from R&D Systems, Minneapolis, Minn. Among cytokines released along the inflammation pathway, IL-1a is recognized as a prominent irritation biomarker. The more IL-1a that is released, the greater is the irritation potential.
Thus, the combar base was used as a negative control on the MatTek tissue.

HaCaT cells = assay: Cell migration assay (scratch gap closure); assay type: cell-based, human; conditions: 0.01% by weight in DMEM culture medium, 24 hours, vs control medium
Description: Three different culture medium samples were prepared. A control medium that included a Dulbecco's modified Eagle's medium (DMEM) comprising actives of 10% Fetal Bovine Serum and 1% Penicillin Streptomycin; a taurine medium that was the same as the control medium but included 0.01% by weight Taurine; and a taurate medium that was the same as the control medium but included 0.01% by weight Sodium Methyl Oleoyl Taurate. To determine the effect of both Taurine (0.01%) and Sodium Methyl Oleoyl Taurate (0.01%) on the cellular repair function, in vitro experiments were conducted using HaCaT cells. HaCaT cells are a spontaneously transformed aneuploid immortal keratinocyte cell line from adult human skin. Three sample wells of the HaCaT cells were each grown until 100% confluent. After that, each well was scratched with a 1000 microliter (ul) tip (to create the gap) and washed twice with 1 milliliter (ml) of phosphate buffered saline (“PBS”) to eliminate dead floating cells. Following that, each one of the three sample wells were treated with 1 ml of one of the three culture medium samples: one with the control medium, one with the taurine (0.01%) medium, and one with the sodium methyl oleoyl taurate (0.01%) medium. Then, initial measurements of gap distance were taken using a microscope (OLYMPUS IX71). […]

SMILES | expression of cytokines IL-1a, IL-6, IL-8 and TNF-a by the irritant ([1]; 0.02 wt. % SDS on 3D EpiDerm) | cytokine levels (IL-1a, IL-6, IL-8, TNF-a; FIGS. 2A-2D, % control) [1] | irritation potential of the combar base [2] | cell migration rate (% reduction in gap distance, FIG. 1) (HaCaT cells)
CCCCCCCCCCCCOS(=O)(=O)[O-].[Na+] [SDS, Sodium Dodecyl Sulfate] | induced |  |  | 
CCCCCCCC/C=C\CCCCCCCC(=O)N(C)CCS(=O)(=O)[O-].[Na+] [sodium methyl oleoyl taurate] |  | suppressed | significantly reduced | comparable enhancement in cell migration rate
NCCS(=O)(=O)O [taurine, 2-aminoethylsulphonic acid] |  | suppressed |  | comparable enhancement in cell migration rate
